{"source": "ChEMBL document CHEMBL1201862", "about": "“PubChem BioAssay data set” (2004)", "key": {"[1]": {"assay": "Concentration-dependent survival of SW480 colon cancer line, luminescence detection with CellTiter-Glo, half-maximal inhibitory concentration (AID 1117338)", "format": "functional"}, "[2]": {"assay": "RKO cell viability reduction, dose response, CellTiter-Glo luminescence (AID 1117322)", "format": "functional"}, "[3]": {"assay": "cytotoxicity toward HCT116 cells – cell-based, CellTiter-Glo luminescence, IC50, dose response (AID 1117332)", "format": "functional", "settings": "HCT-116"}, "[4]": {"assay": "SNU-C1 cell viability reduction, dose response, CellTiter-Glo luminescence (AID 1117323)", "format": "functional, cell-based"}, "[5]": {"assay": "cytotoxicity toward Colo320 cells – cell-based, CellTiter-Glo luminescence, IC50, dose response (AID 1117334)", "format": "functional", "settings": "COLO 320"}, "[6]": {"assay": "cytotoxicity toward HT-29 cells – cell-based, CellTiter-Glo luminescence, IC50, dose response (AID 1117330)", "format": "functional"}, "[7]": {"assay": "CellTiter-Glo luminescent dose response of DLD-1 viability loss (AID 1117352)", "format": "functional"}, "[8]": {"assay": "HCT116 cell viability decrease, GSK3B pretreatment – CellTiter-Glo, IC50, dose response (AID 1117339)", "format": "functional", "settings": "HCT-116"}, "[9]": {"assay": "P. falciparum 3D7-ScDHODH growth inhibitors, dose response, SYBR Green, dry powder samples (AID 1159570);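 further: parasite growth measured after 72 hours of compound exposure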", "format": "functional, cell-based"}, "[10]": {"assay": "HepG2 cell cytotoxicity, dose response, cytotoxicity control, plate reader, dry powder samples (AID 1159569);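 further: inhibitor potency with signal falling toward the positive control level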", "format": "functional, cell-based"}, "[11]": {"assay": "P. falciparum Dd2 growth inhibitors, dose response, SYBR Green, cherry-picked samples (AID 1159567)", "format": "functional, cell-based"}, "[12]": {"assay": "P. falciparum Dd2 growth inhibitors, dose response, SYBR Green, dry powder samples (AID 1159566);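 further: potency for growth inhibition with lower SYBR green DNA signal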", "format": "functional, cell-based"}, "[13]": {"assay": "P. falciparum ATP4 D1247Y mutant growth inhibitors, dose response, NITD609-resistant line, SYBR Green, dry powder (AID 1159571);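 further: parasites synchronized at ring stage by sorbitol before testing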", "format": "functional, cell-based"}, "[14]": {"assay": "P. falciparum blood-stage growth inhibition, dose response, NF54 strain, plate reader, dry powder (AID 651889)", "format": "functional, cell-based"}, "[15]": {"assay": "L-6 rat myoblast cytotoxicity, dose response, counter-screen for T. cruzi inhibitor project, cell-based, plate reader, dry powder (AID 651895)", "format": "functional"}, "[16]": {"assay": "T. cruzi growth inhibition in host cells, dose response, cell-based, plate reader, dry powder, set 2 (AID 652275)", "format": "functional"}, "[17]": {"assay": "growth inhibition of intracellular T. cruzi, dose response, cell-based, plate reader, dry powder samples (AID 651845)", "format": "functional"}, "[18]": {"assay": "T. cruzi intracellular amastigote growth inhibition, dose response, imaging, CA-I/72 strain, bovine embryo skeletal muscle, dry powder (AID 651885)", "format": "functional, cell-based"}, "[19]": {"assay": "L. donovani amastigote growth inhibition, dose response, axenic amastigotes, plate reader, dry powder (AID 651892)", "format": "functional, cell-based"}, "[20]": {"assay": "T. cruzi amastigote growth inhibition, dose response, Tulahuen strain, L-6 host cells, dry powder (AID 651890)", "format": "functional, cell-based"}, "[21]": {"assay": "T. b. rhodesiense proliferation inhibition, dose response, STIB900 strain, plate reader, dry powder (AID 651894)", "format": "functional, cell-based"}, "[22]": {"assay": "HepG2 cell cytotoxicity, dose response, cytotoxicity control, cherry-picked samples (AID 1159577)", "format": "functional, cell-based"}, "[23]": {"assay": "M. tuberculosis H37Rv growth inhibitors, H37Rv strain (AID 1626)", "format": "functional"}, "Protein Tat": {"target": "T1, Protein Tat (Human immunodeficiency virus type 1 group M subtype B (isolate HXB2)(HIV-1), UniProt P04608)", "T1 sequence (P04608 whole entry)": "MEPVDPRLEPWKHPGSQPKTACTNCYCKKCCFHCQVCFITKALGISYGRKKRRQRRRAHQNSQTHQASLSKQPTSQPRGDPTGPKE", "format": "functional"}, "Estrogen receptor": {"target": "T2, Estrogen receptor (Homo sapiens, UniProt P03372)", "T2 sequence (P03372 whole entry)": "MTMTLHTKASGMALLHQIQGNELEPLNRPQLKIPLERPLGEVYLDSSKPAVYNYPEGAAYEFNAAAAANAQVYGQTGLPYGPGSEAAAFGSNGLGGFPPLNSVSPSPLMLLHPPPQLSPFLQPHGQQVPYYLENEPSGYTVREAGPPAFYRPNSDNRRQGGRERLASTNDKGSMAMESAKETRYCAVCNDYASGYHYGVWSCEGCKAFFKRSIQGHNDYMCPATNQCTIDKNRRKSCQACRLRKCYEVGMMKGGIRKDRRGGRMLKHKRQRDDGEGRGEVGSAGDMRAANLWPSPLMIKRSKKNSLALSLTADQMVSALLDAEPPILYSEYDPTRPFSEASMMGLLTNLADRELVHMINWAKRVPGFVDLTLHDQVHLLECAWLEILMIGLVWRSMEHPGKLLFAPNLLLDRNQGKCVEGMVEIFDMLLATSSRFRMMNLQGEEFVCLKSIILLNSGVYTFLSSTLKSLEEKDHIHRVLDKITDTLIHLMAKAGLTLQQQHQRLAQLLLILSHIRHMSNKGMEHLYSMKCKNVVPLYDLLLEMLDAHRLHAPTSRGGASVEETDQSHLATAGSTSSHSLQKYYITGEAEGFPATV"}, "Estrogen receptor beta [24]": {"target": "T3, Estrogen receptor beta (Homo sapiens, UniProt Q92731)", "T3 sequence (Q92731 whole entry)": "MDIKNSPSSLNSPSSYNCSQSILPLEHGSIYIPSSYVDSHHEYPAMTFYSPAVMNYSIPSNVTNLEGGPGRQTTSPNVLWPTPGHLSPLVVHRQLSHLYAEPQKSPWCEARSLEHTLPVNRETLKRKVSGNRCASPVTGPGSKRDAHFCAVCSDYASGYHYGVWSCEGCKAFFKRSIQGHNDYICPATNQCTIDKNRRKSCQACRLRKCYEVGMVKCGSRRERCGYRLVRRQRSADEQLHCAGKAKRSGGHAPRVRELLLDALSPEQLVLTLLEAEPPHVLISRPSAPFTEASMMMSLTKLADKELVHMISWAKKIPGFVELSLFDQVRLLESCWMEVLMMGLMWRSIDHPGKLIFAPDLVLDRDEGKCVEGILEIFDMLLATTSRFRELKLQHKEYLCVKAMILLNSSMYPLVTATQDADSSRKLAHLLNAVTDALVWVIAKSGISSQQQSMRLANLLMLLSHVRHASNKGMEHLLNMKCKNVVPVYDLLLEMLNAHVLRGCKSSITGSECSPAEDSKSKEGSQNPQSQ"}, "Estrogen receptor beta [25]": {"target": "T3, Estrogen receptor beta", "assay": "ERβ–SRC-3 coactivator interaction inhibitors, confirmation, orthogonal assay, biochemical, ELISA, streptavidin-HRP readout (AID 1060)"}, "H4": {"system": "H4", "assay": "Luminescence Cell-Based Dose Response HTS to Identify Activators of 5'UTR Stem-Loop Driven Prion Protein mRNA Translation in H4 Neuroglioblastoma Cells. [Related pubchem assays: 1829 (Project Summary), 1814 (Primary HTS)]", "format": "functional", "settings": "Homo sapiens"}, "[26]": {"target": "Mitogen-activated protein kinase 10 (Homo sapiens, UniProt P53779)", "sequence (P53779 whole entry)": "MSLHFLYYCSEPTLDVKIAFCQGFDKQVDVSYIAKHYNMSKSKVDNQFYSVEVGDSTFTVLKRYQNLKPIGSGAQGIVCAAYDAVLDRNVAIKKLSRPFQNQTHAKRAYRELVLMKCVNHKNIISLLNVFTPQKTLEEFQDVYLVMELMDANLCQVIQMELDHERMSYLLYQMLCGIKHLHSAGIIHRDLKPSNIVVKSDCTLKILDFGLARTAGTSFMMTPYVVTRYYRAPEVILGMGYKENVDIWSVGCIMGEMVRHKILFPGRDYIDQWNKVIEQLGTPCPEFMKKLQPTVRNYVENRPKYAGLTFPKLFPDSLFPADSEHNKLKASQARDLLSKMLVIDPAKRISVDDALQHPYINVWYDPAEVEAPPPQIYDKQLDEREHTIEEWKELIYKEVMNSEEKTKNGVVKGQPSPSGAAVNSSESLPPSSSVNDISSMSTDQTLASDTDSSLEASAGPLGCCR", "assay": "Dose response biochemical screening assay for inhibitors of c-Jun N-Terminal Kinase 3 (JNK3). [Related pubchem assays: 746 ]"}, "[27]": {"target": "5-hydroxytryptamine receptor 1A (Homo sapiens, UniProt P08908)", "sequence (P08908 whole entry)": "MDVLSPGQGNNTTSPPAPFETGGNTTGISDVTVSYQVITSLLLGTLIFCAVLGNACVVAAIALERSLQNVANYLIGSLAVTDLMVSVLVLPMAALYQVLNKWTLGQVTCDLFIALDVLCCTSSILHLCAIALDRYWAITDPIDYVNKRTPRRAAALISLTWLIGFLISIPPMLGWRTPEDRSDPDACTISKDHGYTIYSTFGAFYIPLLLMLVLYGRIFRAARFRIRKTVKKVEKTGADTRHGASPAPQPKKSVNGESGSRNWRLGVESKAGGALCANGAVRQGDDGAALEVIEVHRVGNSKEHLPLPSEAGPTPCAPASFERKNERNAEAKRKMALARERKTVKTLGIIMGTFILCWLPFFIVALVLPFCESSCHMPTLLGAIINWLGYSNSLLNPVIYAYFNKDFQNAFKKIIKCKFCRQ", "format": "functional"}, "[28]": {"target": "T4, Short transient receptor potential channel 4 (Mus musculus, UniProt Q9QUQ5)", "T4 sequence (Q9QUQ5 whole entry)": "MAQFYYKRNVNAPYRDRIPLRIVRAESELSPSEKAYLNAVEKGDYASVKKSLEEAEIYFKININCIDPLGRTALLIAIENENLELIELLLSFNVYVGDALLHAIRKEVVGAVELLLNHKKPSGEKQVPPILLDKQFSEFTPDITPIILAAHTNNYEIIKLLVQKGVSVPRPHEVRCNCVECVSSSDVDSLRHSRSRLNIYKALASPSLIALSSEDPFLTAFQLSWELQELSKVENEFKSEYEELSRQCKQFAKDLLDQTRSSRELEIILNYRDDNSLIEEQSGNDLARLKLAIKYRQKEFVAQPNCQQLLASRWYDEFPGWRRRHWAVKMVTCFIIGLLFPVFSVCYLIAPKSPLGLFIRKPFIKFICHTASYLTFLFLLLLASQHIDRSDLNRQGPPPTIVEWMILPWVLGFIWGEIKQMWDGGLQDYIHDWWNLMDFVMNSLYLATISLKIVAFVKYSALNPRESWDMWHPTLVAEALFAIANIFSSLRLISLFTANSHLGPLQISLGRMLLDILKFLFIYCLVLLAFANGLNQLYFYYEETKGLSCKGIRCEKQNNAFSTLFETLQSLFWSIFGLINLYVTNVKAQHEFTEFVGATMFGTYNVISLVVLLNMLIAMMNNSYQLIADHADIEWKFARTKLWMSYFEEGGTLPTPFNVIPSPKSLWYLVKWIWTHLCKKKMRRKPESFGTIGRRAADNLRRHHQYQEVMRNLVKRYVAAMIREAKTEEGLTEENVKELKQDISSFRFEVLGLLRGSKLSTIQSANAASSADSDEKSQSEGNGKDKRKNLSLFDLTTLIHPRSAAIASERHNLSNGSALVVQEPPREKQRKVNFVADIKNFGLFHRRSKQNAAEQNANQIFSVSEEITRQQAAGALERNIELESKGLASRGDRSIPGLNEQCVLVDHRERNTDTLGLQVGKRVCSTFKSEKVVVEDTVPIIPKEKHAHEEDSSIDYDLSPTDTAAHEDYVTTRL", "assay": "mouse TRPC4 channel activators, dose response, cell-based, HEK293 TRPC4/mu-opioid, Fluo-4 calcium (AID 434937)", "format": "functional"}}, "note": "Calls of active or inactive are those of the source."}
{"molecule": "COC(=O)c1ccccc1C(=O)OC", "note": "[DIMETHYL PHTHALATE]", "values": [{"measurement": "IC50", "setting": "[1]", "result": "> 20 µM (inactive)"}, {"measurement": "IC50", "setting": "[2]", "result": "> 20 µM (inactive)"}, {"measurement": "IC50", "setting": "[3]", "result": "> 20 µM (inactive)"}, {"measurement": "IC50", "setting": "[4]", "result": "> 20 µM (inactive)"}, {"measurement": "IC50", "setting": "[5]", "result": "> 20 µM (inactive)"}, {"measurement": "IC50", "setting": "[6]", "result": "> 20 µM (inactive)"}, {"measurement": "IC50", "setting": "[7]", "result": "> 20 µM (inactive)"}, {"measurement": "IC50", "setting": "[8]", "result": "> 20 µM (inactive)"}]}
{"molecule": "CCC(=O)N1CCC2(CC1)CN(Cc1cc(F)ccc1F)[C@H](CO)c1[nH]c3cc(OC)ccc3c12", "values": [{"measurement": "AC50", "setting": "[9]", "result": "1.83 µM (active)"}, {"measurement": "AC50", "setting": "[10]", "result": "> 100 µM (inactive)"}, {"measurement": "AC50", "setting": "[11]", "result": "2.98 µM (active)"}, {"measurement": "AC50", "setting": "[12]", "result": "1.96 µM (active)"}, {"measurement": "AC50", "setting": "[13]", "result": "1.43 µM (active)"}]}
{"molecule": "C[C@H](CO)N1C[C@H](C)[C@@H](CN(C)Cc2ccc(Oc3ccccc3)cc2)Oc2c(NC(=O)c3ccncc3)cccc2C1=O", "values": [{"measurement": "IC50", "setting": "[14]", "result": "0.872 µM (inactive)"}, {"measurement": "IC50", "setting": "[15]", "result": "17.9 µM (inactive)"}, {"measurement": "AC50", "setting": "[16]", "result": "0.000469 µM (active)"}, {"measurement": "AC50", "setting": "[17]", "result": "0.00152 µM (active)"}, {"measurement": "IC50", "setting": "[18]", "result": "> 20 µM (inactive)"}, {"measurement": "IC50", "setting": "[19]", "result": "26.3 µM (inactive)"}, {"measurement": "IC50", "setting": "[20]", "result": "0.0215 µM (active)"}, {"measurement": "IC50", "setting": "[21]", "result": "3.73 µM (inactive)"}]}
{"molecule": "COc1ccc(NC(=O)Nc2ccc3c(c2)CC(=O)N([C@H](C)CO)C[C@H](C)[C@@H](CN(C)Cc2ccc(C(=O)Nc4ccccc4N)cc2)O3)cc1", "values": [{"measurement": "AC50", "setting": "[9]", "result": "2.3 µM (active)"}, {"measurement": "AC50", "setting": "[10]", "result": "> 100 µM (inactive)"}, {"measurement": "AC50", "setting": "[11]", "result": "2.22 µM (active)"}, {"measurement": "AC50", "setting": "[12]", "result": "1.5 µM (active)"}, {"measurement": "AC50", "setting": "[22]", "result": "> 39 µM (inactive)"}, {"measurement": "AC50", "setting": "[13]", "result": "2.04 µM (active)"}]}
{"molecule": "COc1ccc(NC(=O)CCCSc2ccccc2)cc1", "values": [{"measurement": "IC50", "setting": "[23]", "result": "> 100 µM (active)"}, {"measurement": "IC50", "setting": "Protein Tat", "result": "> 100 µM (active)"}]}
{"molecule": "Cc1noc(C)c1COc1ccc(C(=O)OCC(=O)N2c3ccccc3NC(=O)C2(C)C)cc1", "values": [{"measurement": "IC50", "setting": "Estrogen receptor", "result": "8.74 µM (active)"}, {"measurement": "IC50", "setting": "Estrogen receptor beta [24]", "result": "2.72 µM (active)"}, {"measurement": "IC50", "setting": "Estrogen receptor beta [25]", "result": "3.98 µM (not active)"}, {"measurement": "IC50", "setting": "Protein Tat", "result": "> 100 µM (inconclusive)"}]}
{"molecule": "Oc1[nH]c2ccccc2c1/C=N/c1ccc2c(c1)OCO2", "values": [{"measurement": "EC50", "setting": "H4", "result": "1.25 µM (active)"}, {"measurement": "IC50", "setting": "[26]", "result": "> 93.1 µM (not active)"}]}
{"molecule": "c1ccc2sc(C3CCCNC3)nc2c1", "note": "(configuration not stated)", "values": [{"measurement": "EC50", "setting": "[27]", "result": "> 50 µM (not active)"}, {"measurement": "EC50", "setting": "[28]", "result": "0.0093 µM (active)"}]}
